“Also recorded” adds a separate entry of the source.
Tests used:
[1] = Anti-convulsant activity in the mouse (convulsions induced by 1,5-pentamethylenetetrazole); type: in vivo; conditions: 30 min before pentamethylenetetrazole s.c.
Description: The inhibition of convulsions induced by 1,5-pentamethylenetetrazole was tested by the Clen method. The test compounds were administered orally to the mice, in the doses shown in Table 3, in the form of suspensions in 1% sodium carboxymethyl cellulose solution, and 30 minutes later the test animals were injected subcutaneously with […] of 1,5-pentamethylenetetrazole. The number of mice protected from lethal extensorial tonic spasms, per group of 10 test animals, was recorded.

[2] = Acute toxicity in the rat (oral); conditions: in vivo
Description: (§1) The test compounds shown in Table 2 were administered orally to male mice and rats in the form of a suspension in a 1% solution of sodium carboxymethyl cellulose. The LD50 (lethal dose 50%) was calculated by the method of Litchfield and Wilcoxon.

[3] = Myorelaxant activity in the mouse (traction test); type: in vivo; conditions: after 30 minutes
Description: This was determined by the traction test of Joulon Courvoisier, following Boissier and Simon, in which the mouse is suspended by its front paws to a horizontal metal wire, and the animal's capacity to get up with its hind paws is observed. The test compounds were administered orally to the animals, in the doses shown in Table 5, as suspensions in 1% sodium carboxymethyl cellulose solution; and the animals were tested 30 minutes and 180 minutes after administration. The test animals were deemed to be myorelaxant if unable to get up within 5 seconds.

[4] = Acute toxicity in the mouse (oral); conditions: in vivo, mouse (male)
Description: as §1

[5] = Potentiation of narcosis (hexobarbitone sodium) in the mouse, Winter method; type: in vivo; conditions: hexobarbitone sodium 80 mg/kg i.p., control 33.3
Description: The Winter method was used, in which a state of narcosis is induced by the intraperitoneal administration of 80 mg/kg of hexobarbitone sodium, and is assessed by the loss of the righting reflex in the test animal. […] orally to the animals, in doses shown in Table 4, as suspensions in 1% sodium carboxymethyl cellulose solution; and the prolongation of narcosis in the animals thus treated was observed, by comparison with controls which received only the hexobarbitone administration.

[6] = ECoG and sedation in test animals free to move; type: in vivo; conditions: unrestricted animals; compound 3 at 10 mg/kg
Description: Some test animals were kept in restraint cases placed in a relatively soundproof room and some were left free to move in metal cases measuring 40×50×30 cm, which were also kept in a relatively quiet environment.
In the test animals which were free to move, the first signs of sedation produced by the intragastric administration of 7.5 mg/kg of compounds 1 and 4 appeared, respectively, at 16 minutes (compound 1) and at 8 minutes (compound 4). […] The duration of the effect was, however, shorter, not exceeding 3 hours under these conditions in contrast to the 5 hour minimum for restricted animals.

[7] = Convulsions induced by pentamethylenetetrazol in rats; type: in vivo
Description: The method utilized was according to the method published by Everett and Richards (1944) and Banziger (1965). The pentamethylenetetrazol was given subcutaneously (125 mg/kg) and the test compounds were given orally suspended in a 1% carboxymethyl cellulose solution.

[8] = Electrogenesis of various subcortical centers; type: in vivo; conditions: in vivo
Description: This study was conducted with test animals weighing between 2.6 and 2.8 kg, following the stereotaxic method of Monnier and Gangloff (Atlas et techniques stereotaxique pour le cerveau du lopin eveille, 1961, Elsevier Pub. Co.), permitting the stimulation of certain subcortical structures as well as a simultaneous detection and recording of their electrical activities, which were compared to that of reference cortical electrodes. In this study, the subcortical centers considered were the caudate nucleus, the dorsal hippocampus, the lateral thalamus, the mesenephalic reticular formation, and the hypothalamic reticular formation. Test compounds 1 and 4 were administered by the intragastric route with an identical dose of 7.5 mg/kg.
Spontaneous activity in the subcortical centers of the unanesthetized animals is characterized by desynchronized activity consisting of high amplitude and relatively slow rhythms (4 to 5 c/sec.), alternating with low amplitude rapid rhythms (12 to 13 c/sec.). Tracings from the hippocampus and caudate nucleus sometimes takes the form of bursts, which is less commonly the case from the thalamus. These may occur at the same time as bursts of rapid spikes arising from the frontal cortex. During periods of arousal, this desynchronized activity is followed by a synchronized theta rhythm (7 to 8 c/sec.) from the hippocampus and caudate nucleus and from the median thalamus, whereas the cortical and reticular electrical activities are transformed into ultra-rapid and low voltage rhythms (30μ volts).

[9] = Effect on muscular relaxation in mice (30° inclined screen, Randall); type: in vivo
Description: The method utilized was the procedure described by Randall (1961) using a 30° inclined screen.

[10] = Motor coordination in rats (rotarod, Dunham and Miya 1957); conditions: 68 mg/kg/os
[11] = Hypnotic activity comparison (Janssen 1959); type: in vivo; conditions: Table 11; species not given
Description: Toxicity in test animals to the test compounds in terms of LD50 after oral and intraperitoneal administration was determined according to the procedure of Litchfield and Wilcoxan (1949) and the hypnotic effect on test animals was determined in accordance with the method of Janssen (1959).

Q: With C#CCN1C(=O)CN=C(c2ccccc2)c2cc([N+](=O)[O-])ccc21 [Compound 2, 7-nitro-2,3-dihydro-5-phenyl-1-propargyl-1H-1,4-benzodiazepin-2-one] as the compound, how does the “No. of Animals Protected” value ([1]; 0.12 mg/kg oral) read?
A: Its value is 1/10.

Q: What about the “No. of Animals Protected” value ([1]; 0.25 mg/kg oral) of the same compound?
A: The value was 4/10.

Q: What about the “No. of Animals Protected” value ([1]; 0.5 mg/kg oral) of the same compound?
A: Its value is 9/10.

Q: What about the LD50 [2] of the same compound?
A: The LD50 was 876 mg/kg.

Q: What about the “Percentage of myorelaxant animals” value ([3]; 1.0 mg/kg oral) of the same compound?
A: Its value is 10%.

Q: And the “Percentage of myorelaxant animals” value ([3]; 2.0 mg/kg oral)?
A: Its value is 20%.

Q: What about the “Percentage of myorelaxant animals” value ([3]; 4.0 mg/kg oral) of the same compound?
A: The value was 40%.

Q: What about the “Percentage of myorelaxant animals” value ([3]; 8.0 mg/kg oral) of the same compound?
A: The value was 60%.

Q: What about the LD50 [4] of the same compound?
A: The LD50 was 1880 mg/kg.

Q: What about the Duration of narcosis ([5]; 0.5 mg/kg oral) of the same compound?
A: Its Duration of narcosis is 53.4 min.

Q: What about the Duration of narcosis ([5]; 1.0 mg/kg oral) of the same compound?
A: The Duration of narcosis was 94.5 min.

Q: And the Duration of narcosis ([5]; 2.0 mg/kg oral)?
A: The Duration of narcosis was 195.1 min.

Q: What does the source list for CN1C(=O)CN=C(c2ccccc2)c2cc(Cl)ccc21 [Compound 3, 7-chloro-1,3-dihydro-1-methyl-5-phenyl-2H-1,4-benzodiazepin-2-one, reference compound]?
A: duration of ECoG effects (three compounds compared) [6]: about 31/2; ED50 ([7]; Rattus norvegicus, oral, protection against pentamethylenetetrazol, read-out: ED50 (and C.L.) (converted)): 7.8 mg/kg; % Protected Animals ([7]; Time 90 min.): 20%; % Protected Animals ([7]; Time 120 min.): 10%; % Protected Animals ([7]; Time 180 min.): 0%; % Protected Animals ([7]; Time 240 min.): 0%; EEG activity of the hippocampus ([8]; listed as Valium): depressed; also recorded: reduction in the amplitude of the hippocampal rhythm; % Relaxed Animals ([9]; 10 mg/kg/os): 20%; ED50 ([9]; Mus musculus, po, muscular relaxation, read-out: ED50 (and C.L.)): 14.1 mg/kg; % Uncoordinated Animals [10]: 50%; ED50 [11]: 242 mg/kg

Q: With CNC1=Nc2ccc(Cl)cc2C(c2ccccc2)=[N+]([O-])C1 [Librium, reference compound] as the compound, how does the “EEG activity of the hippocampus” value [8] read?
A: The value was “depressed; also recorded: reduction in the amplitude of the hippocampal rhythm”.
